From ChEMBL document CHEMBL3885881, “DrugMatrix”

Organism: Rattus norvegicus
Assay: DrugMatrix - Regimen: Daily Repeat
Assay type: toxicity, organism-based, Sprague-Dawley
Set-up: regimen Daily Repeat, gender Male, age 6-8 weeks
Conditions: in vivo, po, route oral GAVAGE, vehicle .5 % CMC; for ABSOLUTE BASOPHIL / ABSOLUTE EOSINOPHIL / ABSOLUTE LYMPHOCYTE / ABSOLUTE MONOCYTE / ABSOLUTE SEGMENTED NEUTROPHIL / BASOPHIL / EOSINOPHIL / ERYTHROCYTE COUNT / HEMATOCRIT / HEMOGLOBIN / LEUKOCYTE COUNT / LYMPHOCYTE / MEAN CORPUSCULAR HEMOGLOBIN / MEAN CORPUSCULAR HEMOGLOBIN CONCENTRATION / MEAN CORPUSCULAR VOLUME / MONOCYTE / NEUTROPHIL / NUCLEATED RED BLOOD CELLS / PLATELET COUNT: tissue Blood; for ALANINE AMINOTRANSFERASE / ALBUMIN / ALKALINE PHOSPHATASE / ASPARTATE AMINOTRANSFERASE / BLOOD UREA NITROGEN / CARBON DIOXIDE / CHLORIDE / CHOLESTEROL / CREATINE PHOSPHOKINASE / CREATININE / GLUCOSE / LACTATE DEHYDROGENASE / LIPASE / PHOSPHORUS / POTASSIUM / SODIUM / TOTAL BILIRUBIN / TOTAL PROTEIN / URIC ACID: tissue Plasma
[1] = 10 mg/kg, 72 h, dose level Low, time 3 day
[2] = 10 mg/kg, 120 h, dose level Low, time 5 day
[3] = 2000 mg/kg, 72 h, dose level High, time 3 day
[4] = 2000 mg/kg, 120 h, dose level High, time 5 day

CC(=O)O[C@]1(C(C)=O)CC[C@H]2[C@@H]3C=C(Cl)C4=CC(=O)CC[C@]4(C)[C@H]3CC[C@@]21C [CHLORMADINONE ACETATE]
ABSOLUTE BASOPHIL [1]: 0 CELLS/uL
ABSOLUTE EOSINOPHIL [1]: 58.33 CELLS/uL
ABSOLUTE LYMPHOCYTE [1]: 11175 CELLS/uL
ABSOLUTE MONOCYTE [1]: 59.67 CELLS/uL
ABSOLUTE SEGMENTED NEUTROPHIL [1]: 507 CELLS/uL
BASOPHIL [1]: 0%
EOSINOPHIL [1]: 0.33%
ERYTHROCYTE COUNT [1]: 5.63 x10E6/uL
HEMATOCRIT [1]: 35.5%
HEMOGLOBIN [1]: 14.3 G/DL
LEUKOCYTE COUNT [1]: 11.8 x10E3/uL
LYMPHOCYTE [1]: 94.67%
MEAN CORPUSCULAR HEMOGLOBIN [1]: 25.37 pg
MEAN CORPUSCULAR HEMOGLOBIN CONCENTRATION [1]: 40.27 G/DL
MEAN CORPUSCULAR VOLUME [1]: 63 fL
MONOCYTE [1]: 0.67%
NEUTROPHIL [1]: 4.33%
NUCLEATED RED BLOOD CELLS [1]: 0 /100WBC
PLATELET COUNT [1]: 925.33 x10E3/uL
ALANINE AMINOTRANSFERASE [1]: 52 u/L
ALBUMIN [1]: 4.5 G/DL
ALKALINE PHOSPHATASE [1]: 475 u/L
ASPARTATE AMINOTRANSFERASE [1]: 70.67 u/L
BLOOD UREA NITROGEN [1]: 17.67 mg/dL
CARBON DIOXIDE [1]: 33 mmol/L
CHLORIDE [1]: 101 MEQ/L
CHOLESTEROL [1]: 81.67 mg/dL
CREATINE PHOSPHOKINASE [1]: 138.33 u/L
CREATININE [1]: 0.17 mg/dL
GLUCOSE [1]: 135.67 mg/dL
LACTATE DEHYDROGENASE [1]: 134.67 u/L
LIPASE [1]: 12 u/L
PHOSPHORUS [1]: 11.17 mg/dL
POTASSIUM [1]: 6.06 MEQ/L
SODIUM [1]: 149.35 MEQ/L
TOTAL BILIRUBIN [1]: 0.3 mg/dL
TOTAL PROTEIN [1]: 6.37 G/DL
URIC ACID [1]: 0.67 mg/dL
ABSOLUTE BASOPHIL [2]: 0 CELLS/uL
ABSOLUTE EOSINOPHIL [2]: 0 CELLS/uL
ABSOLUTE LYMPHOCYTE [2]: 14416.33 CELLS/uL
ABSOLUTE MONOCYTE [2]: 46.33 CELLS/uL
ABSOLUTE SEGMENTED NEUTROPHIL [2]: 1304 CELLS/uL
BASOPHIL [2]: 0%
EOSINOPHIL [2]: 0%
ERYTHROCYTE COUNT [2]: 6.23 x10E6/uL
HEMATOCRIT [2]: 37.17%
HEMOGLOBIN [2]: 14.57 G/DL
LEUKOCYTE COUNT [2]: 15.77 x10E3/uL
LYMPHOCYTE [2]: 91.67%
MEAN CORPUSCULAR HEMOGLOBIN [2]: 23.47 pg
MEAN CORPUSCULAR HEMOGLOBIN CONCENTRATION [2]: 39.23 G/DL
MEAN CORPUSCULAR VOLUME [2]: 59.77 fL
MONOCYTE [2]: 0.33%
NEUTROPHIL [2]: 8%
NUCLEATED RED BLOOD CELLS [2]: 0 /100WBC
PLATELET COUNT [2]: 1116.33 x10E3/uL
ALANINE AMINOTRANSFERASE [2]: 54.33 u/L
ALBUMIN [2]: 4.47 G/DL
ALKALINE PHOSPHATASE [2]: 380.67 u/L
ASPARTATE AMINOTRANSFERASE [2]: 92.67 u/L
BLOOD UREA NITROGEN [2]: 14 mg/dL
CARBON DIOXIDE [2]: 25.67 mmol/L
CHLORIDE [2]: 102.33 MEQ/L
CHOLESTEROL [2]: 79.67 mg/dL
CREATINE PHOSPHOKINASE [2]: 290.67 u/L
CREATININE [2]: 0.13 mg/dL
GLUCOSE [2]: 156.67 mg/dL
LACTATE DEHYDROGENASE [2]: 269 u/L
LIPASE [2]: 9.67 u/L
PHOSPHORUS [2]: 12.67 mg/dL
POTASSIUM [2]: 7.15 MEQ/L
SODIUM [2]: 146.13 MEQ/L
TOTAL BILIRUBIN [2]: 0.2 mg/dL
TOTAL PROTEIN [2]: 6.27 G/DL
URIC ACID [2]: 1.77 mg/dL
ABSOLUTE BASOPHIL [3]: 0 CELLS/uL
ABSOLUTE EOSINOPHIL [3]: 87.33 CELLS/uL
ABSOLUTE LYMPHOCYTE [3]: 10368.67 CELLS/uL
ABSOLUTE MONOCYTE [3]: 145 CELLS/uL
ABSOLUTE SEGMENTED NEUTROPHIL [3]: 665.67 CELLS/uL
BASOPHIL [3]: 0%
EOSINOPHIL [3]: 0.67%
ERYTHROCYTE COUNT [3]: 5.63 x10E6/uL
HEMATOCRIT [3]: 36.4%
HEMOGLOBIN [3]: 14.6 G/DL
LEUKOCYTE COUNT [3]: 11.27 x10E3/uL
LYMPHOCYTE [3]: 90.67%
MEAN CORPUSCULAR HEMOGLOBIN [3]: 25.93 pg
MEAN CORPUSCULAR HEMOGLOBIN CONCENTRATION [3]: 40.1 G/DL
MEAN CORPUSCULAR VOLUME [3]: 64.67 fL
MONOCYTE [3]: 1.33%
NEUTROPHIL [3]: 7.33%
NUCLEATED RED BLOOD CELLS [3]: 0 /100WBC
PLATELET COUNT [3]: 1192 x10E3/uL
ALANINE AMINOTRANSFERASE [3]: 57 u/L
ALBUMIN [3]: 4.57 G/DL
ALKALINE PHOSPHATASE [3]: 388.67 u/L
ASPARTATE AMINOTRANSFERASE [3]: 82 u/L
BLOOD UREA NITROGEN [3]: 16.33 mg/dL
CARBON DIOXIDE [3]: 29 mmol/L
CHLORIDE [3]: 99 MEQ/L
CHOLESTEROL [3]: 79.67 mg/dL
CREATINE PHOSPHOKINASE [3]: 341.33 u/L
CREATININE [3]: 0.18 mg/dL
GLUCOSE [3]: 149.33 mg/dL
LACTATE DEHYDROGENASE [3]: 132.67 u/L
LIPASE [3]: 10 u/L
PHOSPHORUS [3]: 12.23 mg/dL
POTASSIUM [3]: 6.81 MEQ/L
SODIUM [3]: 144.97 MEQ/L
TOTAL BILIRUBIN [3]: 0.17 mg/dL
TOTAL PROTEIN [3]: 6.6 G/DL
URIC ACID [3]: 1.8 mg/dL
ABSOLUTE BASOPHIL [4]: 0 CELLS/uL
ABSOLUTE EOSINOPHIL [4]: 0 CELLS/uL
ABSOLUTE LYMPHOCYTE [4]: 10781.67 CELLS/uL
ABSOLUTE MONOCYTE [4]: 45 CELLS/uL
ABSOLUTE SEGMENTED NEUTROPHIL [4]: 840 CELLS/uL
BASOPHIL [4]: 0%
EOSINOPHIL [4]: 0%
ERYTHROCYTE COUNT [4]: 6.06 x10E6/uL
HEMATOCRIT [4]: 36.83%
HEMOGLOBIN [4]: 14.67 G/DL
LEUKOCYTE COUNT [4]: 11.67 x10E3/uL
LYMPHOCYTE [4]: 92%
MEAN CORPUSCULAR HEMOGLOBIN [4]: 24.23 pg
MEAN CORPUSCULAR HEMOGLOBIN CONCENTRATION [4]: 39.8 G/DL
MEAN CORPUSCULAR VOLUME [4]: 60.87 fL
MONOCYTE [4]: 0.33%
NEUTROPHIL [4]: 7.67%
NUCLEATED RED BLOOD CELLS [4]: 0.33 /100WBC
PLATELET COUNT [4]: 996.33 x10E3/uL
ALANINE AMINOTRANSFERASE [4]: 60.33 u/L
ALBUMIN [4]: 4.3 G/DL
ALKALINE PHOSPHATASE [4]: 310.33 u/L
ASPARTATE AMINOTRANSFERASE [4]: 77.67 u/L
BLOOD UREA NITROGEN [4]: 17.67 mg/dL
CARBON DIOXIDE [4]: 24.67 mmol/L
CHLORIDE [4]: 102.33 MEQ/L
CHOLESTEROL [4]: 67.33 mg/dL
CREATINE PHOSPHOKINASE [4]: 145.33 u/L
CREATININE [4]: 0.2 mg/dL
GLUCOSE [4]: 139 mg/dL
LACTATE DEHYDROGENASE [4]: 117.33 u/L
LIPASE [4]: 9.67 u/L
PHOSPHORUS [4]: 12.2 mg/dL
POTASSIUM [4]: 7.04 MEQ/L
SODIUM [4]: 143.63 MEQ/L
TOTAL BILIRUBIN [4]: 0.2 mg/dL
TOTAL PROTEIN [4]: 6.37 G/DL
URIC ACID [4]: 1.4 mg/dL
